target: T1, human Mas receptor (Homo sapiens, UniProt P04201); assay: Mas receptor IP3 assay (inverse agonist assay); assay type: cell-based; settings: HEK293 cells over-expressing human Mas receptor; average from several experiments
T1 construct: expressed in transfected cells
T1 sequence (P04201 1-325): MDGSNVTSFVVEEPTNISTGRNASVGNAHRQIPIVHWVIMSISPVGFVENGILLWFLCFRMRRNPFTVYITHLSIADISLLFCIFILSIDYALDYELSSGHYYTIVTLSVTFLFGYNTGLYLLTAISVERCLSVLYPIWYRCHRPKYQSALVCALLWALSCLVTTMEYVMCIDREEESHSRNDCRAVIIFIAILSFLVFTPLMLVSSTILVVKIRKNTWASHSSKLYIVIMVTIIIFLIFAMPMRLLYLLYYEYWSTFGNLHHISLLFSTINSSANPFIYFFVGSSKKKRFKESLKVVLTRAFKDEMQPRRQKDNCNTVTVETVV
Description: The Mas receptor IP3 assay was performed using a mammalian cell line (HEK293) which was transfected with a plasmid containing the human Mas receptor and selected for stable expression of the receptor. For the inverse agonist assay, higher levels of Mas receptor constitutive activity were desired. To achieve this, Mas receptor expression levels were increased by transiently transfecting the same Mas receptor stable cell line with additional human Mas receptor plasmid DNA following standard procedures. These cells were used in the Mas receptor IP3 assay approximately 24 hours post-transfection.
Cells were split into 96-well plates (50,000 cells/well) and allowed to attach for a period of 6 hours. The growth medium was then replaced with medium supplemented with 4 μCi/ml [^3H]myo-inositol (100 μl; Perkin Elmer Life Sciences) and the cells were allowed to incubate for approximately 20 hours. Test compounds were serially diluted in inositol-free media containing 10 mM LiCl. The media in the plates was removed by aspiration, replaced with these test compound solutions and incubated at 37° C. for 1 hour. Following this incubation, the media was removed by aspiration and replaced with buffer containing 0.1M formic acid. The plates were then frozen overnight at −80° C. to achieve complete cell lysis.
The following day, the assay plates were thawed at room temperature. The thawed contents were then transfered to 96-well filter plates (Millipore, Multiscreen) pre-loaded with resin (Biorad, AG1-X8 100-200 mesh, formate form). The plate was filtered using a vacuum manifold and the resin was washed multiple times with water. An elution buffer was then applied (200 μl, 0.2M Ammonium formate/0.1M formic acid) and the resulting eluent was collected, under vacuum, in a 96-well collection plate. Aliquots of the eluent (80 μl) were transferred to filter plates (Whatman, Unifilter GF/C) and dried in a 45° C. oven overnight. Dried plates were counted on a scintillation counter following the addition of an appropriate scintillant (Perkin Elmer Life Sciences, Optiphase Supermix or Hi-Safe 3).

| SMILES | IC50 |
| --- | --- |
| O=C(c1cccc(C(Cl)Cl)c1)N1CC2(CCN(CC3CC3)CC2)c2cc(F)ccc21 [Compound 147, 1′-(cyclopropylmethyl)-1,2-dihydro-5-fluoro-1-(3-dichloromethyl-benzoyl)-spiro[3H-indole-3,4′-piperidine]] | 735 nM |
| C=CCN1CCC2(CC1)CN(C(=O)c1cccc(Cl)c1)c1ccc(F)cc12 [Compound 86, 1′-(allyl)-1,2-dihydro-5-fluoro-1-(3-chloro-benzoyl)-spiro[3H-indole-3,4′-piperidine]] | 705 nM |
| O=C1c2ccccc2-c2cccc(C(=O)N3CC4(CCN(CC5CC5)CC4)c4cc(F)ccc43)c21 [Compound 153, 1′-(cyclopropylmethyl)-1,2-dihydro-5-fluoro-1-(9-oxo-9H-fluorene-1-carbonyl)-spiro[3H-indole-3,4′-piperidine]] | 774 nM |
| C=CCN1CCC2(CC1)CN(C(=O)c1ccc(F)c(C(F)(F)F)c1)c1ccc(F)cc12 [Compound 88, 1′-(allyl)-1,2-dihydro-5-fluoro-1-(3-trifluoromethyl-4-fluoro-benzoyl)-spiro[3H-indole-3,4′-piperidine]] | 896 nM |
| C=CCN1CCC2(CC1)CN(S(=O)(=O)c1ccc(Cl)cc1Cl)c1ccc(F)cc12 [Compound 185, 1′-(allyl)-1,2-dihydro-5-fluoro-1-(2,4-dichloro-benzenesulfonyl)-spiro[3H-indole-3,4′-piperidine]] | 956 nM |
| C=CCN1CCC2(CC1)CN(C(=O)c1ccccc1F)c1ccc(OC)cc12 [Compound 204, 1′-(allyl)-1,2-dihydro-5-methoxy-1-(2-fluoro-benzoyl)-spiro[3H-indole-3,4′-piperidine]] | 554 nM |
| C=CCN1CCC2(CC1)CN(C(=O)c1cccc(C(Cl)Cl)c1)c1ccccc12 [Compound 102, 1′-(allyl)-1,2-dihydro-1-(3-dichloromethyl-benzoyl)-spiro[3H-indole-3,4′-piperidine]] | 939 nM |
| C=CCN1CCC2(CC1)CN(C(=O)c1cccc3ccccc13)c1ccccc12 [Compound 133, 1′-(allyl)-1,2-dihydro-1-(naphthylene-1-carbonyl)-spiro[3H-indole-3,4′-piperidine]] | 535 nM |
| O=C(c1cccc(Cl)c1)N1CC2(CCN(CC3CC3)CC2)c2cc(F)ccc21 [Compound 165, 1′-(cyclopropylmethyl)-1,2-dihydro-5-fluoro-1-(3-chloro-benzoyl)-spiro[3H-indole-3,4′-piperidine]] | 757 nM |
| O=C(c1cccc2ccccc12)N1CC2(CCN(CC3CC3)CC2)c2cc(F)ccc21 [Compound 159, 1′-(cyclopropylmethyl)-1,2-dihydro-5-fluoro-1-(naphthylene-1-carbonyl)-spiro[3H-indole-3,4′-piperidine]] | 505 nM |
| O=C(c1ccccc1F)N1CC2(CCN(CC3CC3)CC2)c2cc(F)ccc21 [Compound 139, 1′-(cyclopropylmethyl)-1,2-dihydro-5-fluoro-1-(2-fluoro-benzoyl)-spiro[3H-indole-3,4′-piperidine]] | 728 nM |
| C=CCN1CCC2(CC1)CN(C(=O)c1cccc(C(Cl)Cl)c1)c1ccc(F)cc12 [Compound 92, 1′-(allyl)-1,2-dihydro-5-fluoro-1-(3-dichloromethyl-benzoyl)-spiro[3H-indole-3,4′-piperidine]] | 592 nM |
| C=CCN1CCC2(CC1)CN(C(=O)c1cccnc1SC)c1ccc(F)cc12 [Compound 215, 1′-(allyl)-1,2-dihydro-5-fluoro-1-(2-methylsulfanyl-pyridine-3-carbonyl)-spiro[3H-indole-3,4′-piperidine]] | 607 nM |
| C=CCN1CCC2(CC1)CN(S(=O)(=O)c1ccccc1F)c1ccc(F)cc12 [Compound 229, 1′-(allyl)-1,2-dihydro-5-fluoro-1-(2-fluoro-benzenesulfonyl)-spiro[3H-indole-3,4′-piperidine]] | 846 nM |
| O=C(N1CC2(CCN(CC3CC3)CC2)c2cc(F)ccc21)C12CC3CC(CC(C3)C1)C2 [Compound 168, 1′-(cyclopropylmethyl)-1,2-dihydro-5-fluoro-1-(adamantane-1-carbonyl)-spiro[3H-indole-3,4′-piperidine]] | 502 nM |
| C=CCN1CCC2(CC1)CN(S(=O)(=O)c1cc(Cl)c(Cl)s1)c1ccc(F)cc12 [Compound 210, 1′-(allyl)-1,2-dihydro-5-fluoro-1-(4,5-dichloro-thiophene-2-sulfonyl)-spiro[3H-indole-3,4′-piperidine]] | 890 nM |

| SMILES | IC50 |
| --- | --- |
| C=CCN1CCC2(CC1)CN(C(=O)c1ccccc1Cl)c1ccc(F)cc12 [Compound 69, 1′-(allyl)-1,2-dihydro-5-fluoro-1-(2-chloro-benzoyl)-spiro[3H-indole-3,4′-piperidine]] | 378 nM |
| O=C(c1cccc(F)c1F)N1CC2(CCN(CC3CC3)CC2)c2cc(F)ccc21 [Compound 142, 1′-(cyclopropylmethyl)-1,2-dihydro-5-fluoro-1-(2,3-difluoro-benzoyl)-spiro[3H-indole-3,4′-piperidine]] | 480 nM |
| C=CCN1CCC2(CC1)CN(C(=O)c1cc(OC)cc(OC)c1)c1ccc(F)cc12 [Compound 73, 1′-(allyl)-1,2-dihydro-5-fluoro-1-(3,5-dimethoxy-benzoyl)-spiro[3H-indole-3,4′-piperidine]] | 867 nM |
| O=C(c1ccc2ccccc2c1)N1CC2(CCN(CC3CC3)CC2)c2cc(F)ccc21 [Compound 160, 1′-(cyclopropylmethyl)-1,2-dihydro-5-fluoro-1-(naphthylene-2-carbonyl)-spiro[3H-indole-3,4′-piperidine]] | 721 nM |
| COc1ccc(C(=O)N2CC3(CCN(CC4CC4)CC3)c3cc(F)ccc32)cc1 [Compound 31, 1′-(cyclopropylmethyl)-1,2-dihydro-5-fluoro-1-(4-methoxy-benzoyl)-spiro[3H-indole-3,4′-piperidine]] | 900 nM |
| CN1CCC2(CC1)CN(C(=O)c1cccc(C(Cl)Cl)c1)c1ccc(F)cc12 [Compound 199, 1′-(methyl)-1,2-dihydro-5-fluoro-1-(3-dichloromethyl-benzoyl)-spiro[3H-indole-3,4′-piperidine]] | 382 nM |
| O=C(c1ccccc1Cl)N1CC2(CCN(CC3CC3)CC2)c2ccccc21 [Compound 101, 1′-(cyclopropylmethyl)-1,2-dihydro-1-(2-chloro-benzoyl)-spiro[3H-indole-3,4′-piperidine]] | 792 nM |
| C=CCN1CCC2(CC1)CN(C(=O)c1ccc(F)cc1F)c1ccc(F)cc12 [Compound 76, 1′-(allyl)-1,2-dihydro-5-fluoro-1-(2,4-difluoro-benzoyl)-spiro[3H-indole-3,4′-piperidine]] | 936 nM |
| C=CCN1CCC2(CC1)CN(C(=O)c1ccc([N+](=O)[O-])cc1)c1ccc(F)cc12 [Compound 83, 1′-(allyl)-1,2-dihydro-5-fluoro-1-(4-nitro-benzoyl)-spiro[3H-indole-3,4′-piperidine]] | 757 nM |
| C=CCN1CCC2(CC1)CN(S(=O)(=O)c1ccccc1Cl)c1ccc(F)cc12 [Compound 206, 1′-(allyl)-1,2-dihydro-5-fluoro-1-(2-chloro-benzenesulfonyl)-spiro[3H-indole-3,4′-piperidine]] | 303 nM |
| C=CCN1CCC2(CC1)CN(C(=O)c1cc(Cl)sc1Cl)c1ccc(F)cc12 [Compound 211, 1′-(allyl)-1,2-dihydro-5-fluoro-1-(2,5-dichloro-thiophene-3-carbonyl)-spiro[3H-indole-3,4′-piperidine]] | 855 nM |
| C=CCN1CCC2(CC1)CN(C(=O)c1cccc3ccccc13)c1ccc(F)cc12 [Compound 85, 1′-(allyl)-1,2-dihydro-5-fluoro-1-(naphthalene-1-carbonyl)-spiro[3H-indole-3,4′-piperidine]] | 381 nM |
| C=CCN1CCC2(CC1)CN(S(=O)(=O)c1ccc(Cl)s1)c1ccc(F)cc12 [Compound 214, 1′-(allyl)-1,2-dihydro-5-fluoro-1-(5-chloro-thiophene-2-sulfonyl)-spiro[3H-indole-3,4′-piperidine]] | 455 nM |
| O=S(=O)(c1ccc(Cl)cc1Cl)N1CC2(CCN(CC3CC3)CC2)c2cc(F)ccc21 [Compound 192, 1′-(cyclopropylmethyl)-1,2-dihydro-5-fluoro-1-(2,4-dichloro-benzenesulfonyl)-spiro[3H-indole-3,4′-piperidine]] | 891 nM |
| C=CCN1CCC2(CC1)CN(C(=O)c1cccnc1Cl)c1ccc(F)cc12 [Compound 93, 1′-(allyl)-1,2-dihydro-5-fluoro-1-(2-chloro-pyridine-3-carbonyl)-spiro[3H-indole-3,4′-piperidine]] | 841 nM |

Reference: patent US20070254903A1, “Novel Spiroindoline or Spiroisoquinoline Compounds, Methods of Use and Compositions Thereof” (ARENA PHARMACEUTICALS, INC., priority 2003, published 2007)
